Values quoted from earlier work as cited in US4978531A, “Clebopride transdermal patch” (Fordonal, S.A., priority 1987, dated 1990).

Conditions: in vivo

- biological half-life: about 1.5 hours
SMILES: COc1cc(N)c(Cl)cc1C(=O)NC1CCN(Cc2ccccc2)CC1 [clebopride]
